# Assay results taken from patent US20210063414A1, “METHODS FOR PREVENTING AND/OR TREATING BONE LOSS CONDITIONS BY MODULATING IRISIN” (Dana-Farber Cancer Institute, Inc., priority 2018, published 2021).
# Test system: his-tag integrins
# Assay: Irisin-integrin binding in presence of RGDS or control peptide, co-immunoprecipitation
# Parameters: species or system human
# Settings: 100 nM flag-tag irisin, 5 nM his-tag integrins, 10 uM peptide, vs control RGD peptide
# Protocol: 100 nM flag-tag irisin was incubated with 5 nM of indicated integrins with his-tag in the presence of RGDS peptide or its control peptide (10 uM). This was followed by immunoprecipitation using anti-his-tag agarose. Co-precipitated irisin was analyzed by immunoblot analysis with antibody against flag tag.
# Certain materials and methods were used to generate the results described herein. For example, the data shown in FIG. 1A resulted from MLO-Y4 (an osteocyte-like cell line) cells treated with the indicated concentration of irisin and hydrogen peroxide for 4 hours. Cells were stained with Hoechst 33342 (ThermoFisher Scientific, catalog number H3570) and Eth-D1 (ThermoFisher Scientific, catalog number E1169) and analyzed to determine the percentage of cell death using ImageJ. […] Co-precipitated irisin was analyzed by immunoblot analysis against flag tag (Sigma Aldrich, catalog number A8592). The data shown in FIGS. 5A and 5B were generated from MLO-Y4 cells treated and analyzed as in the experiments used to generate the data shown in FIG. 2D, except that pre-treatment of 100 nM RGDS (FIG. 5A) or echistatin (R & D Systems Inc., catalog number 3202/100U) (FIG. 5B) for 10 minutes was performed before irisin treatment. […] Sclerostin mRNA level was analyzed by qPCR (FIG. 7A). […]
substance,measurement,setting,value
"RGDS peptide: classical integrin competitive inhibitory peptide, commercially available form of the RGD peptide",effect on irisin binding to integrins,,inhibited much of the irisin binding
same,effect on irisin binding to integrins,listed as RGDS,blocked
